According to patent US20230192772A1, “ANTIMICROBIAL PEPTIDES AND USES THEREOF” (SORBONNE UNIVERSITE, priority 2016, published 2023):
In brackets after ≈: the same amount, converted by molar mass. Square brackets hold non-standard residues; d marks the D form. Ends that are not written are not given here. Peptide text beside a SMILES is read from it.

Tests used:
Experiment in all cases: MIC/MBC (Example 10, MH medium)
Assay type in all cases: cell-based
[1] = system: Enterococcus faecalis CIP 103015; conditions: Table 5; E. faecalis CIP 103015
Experimental: (§1) The MIC is determined using a growth inhibition test in liquid medium. The MIC is defined as being the lowest peptide concentration capable of inhibiting the bacterial strain tested, after incubation for 18 h at 37° C. The test was carried out in a sterile microtitration plate containing 96 wells. A series of increasing concentrations of each peptide (0.2 to 100 µM) was prepared beforehand in sterile MilliQ water. In each well, 10 µL of peptide was incubated with 90 µL of bacterial suspension (10^7 cfu/mL) in yeast extract-free LB medium. The microplate was incubated at 37° C. for 18 h. The bacterial growth was evaluated by measuring the OD at 620 nm using a plate reader.
(§2) The negative growth inhibition control was obtained by replacing the solution containing the peptide by sterile MilliQ water. The positive control suitable for completely inhibiting the growth of the bacterial strains was obtained by replacing the solution containing the peptide by 10 µL of formaldehyde.
(§3) The results are interpreted by calculating the percentage of bacterial growth in each well according to the formula:
(§4) %Growth = (OD well - OD of T0)/(OD of T100-OD of T0)*100 where
(§5) • OD of T100 = OD of growth control (bacterial suspension free from sample under test, 100% growth), • OD of T0 = OD of sterility control (culture medium + bacterium + 10 µL formaldehyde, 0% growth) and • OD well = OD of well for which it is sought to calculate the growth percentage (bacterial suspension + peptide under test).
(§6) The MBC is defined as being the minimum peptide concentration leaving no surviving bacteria of the inoculum after incubation at 37° C. for 24 hours. This test consists of smearing the contents of the well wherein the peptide has inhibited bacterial growth on a Petri dish (LB agar), followed by incubation for 24 h at 37° C.
(§7) A 10 mL preculture in Muller-Hinton (MH) medium is prepared by inoculating a colony of the bacterial strain of interest. The preculture is incubated at 37° C. under stirring overnight. The culture is subcultured to 1:100 under the same conditions. The culture concentration is evaluated by measuring the turbidity at 600 nm (OD600 nm 1.0 = 5 × 10^8 CFU/mL for E. coli (Gram-negative bacteria) and 1.5 × 10^8 CFU/mL for S. aureus (Gram-positive bacteria). Once the exponential growth phase (OD600 nm = 0.3 - 0.7) has been achieved, the cultures are diluted in MH medium so as to obtain 10^6 CFU/mL (final inoculum concentration).
(§8) The MIC and the MBC were determined as per the protocol described in part 2.1 of Example 2.

[2] = system: Escherichia coli ATCC 8739; conditions: Table 5; E. coli ATCC 8739
Experimental: as §1, §2, §3, §4, §5, §6, §7, §8

[3] = system: Pseudomonas aeruginosa ATCC 9027; conditions: Table 5; P. aeruginosa ATCC 9027
Experimental: as §1, §2, §3, §4, §5, §6, §7, §8

[4] = system: Staphylococcus aureus ATCC 6538; conditions: Table 5; S. aureus ATCC 6538
Experimental: as §1, §2, §3, §4, §5, §6, §7, §8

Molecule | MBC [1] [µM] | MIC [1] [µM] | MBC [2] [µM] | MIC [2] [µM] | MBC [3] [µM] | MIC [3] [µM] | MBC [4] [µM] | MIC [4] [µM]
CSCC[C@@H](NC(=O)[C@@H](CC(N)=O)NC(=O)[C@H](NC(=O)[C@H](NC(=O)[C@@H](C)NC(=O)[C@@H](CC(N)=O)NC(=O)[C@@H](CC(C)C)NC(=O)[C@H](NC(=O)[C@@H](C)NC(=O)[C@@H](CCCCN)NC(=O)CNC(=O)[C@@H](C)NC(=O)[C@H](NC(=O)[C@@H](CCCCN)NC(=O)CNC(=O)[C@H](NC(=O)[C@@H](CCCCN)NC(=O)[C@@H](CCCCN)NC(=O)[C@@H](CC(C)C)NC(=O)[C@@H](CC(C)C)NC(=O)[C@H](NC(=O)[C@@H](CCCCN)NC(=O)[C@@H](Cc1c[nH]c2ccccc12)NC(=O)[C@@H](CC(C)C)NC(=O)[C@@H](C)N)[C@H](C)O)C(C)C)C(C)C)C(C)C)C(C)C)[C@H](C)O)C(=O)N[C@H](C)C(=O)N[C@H](CC(N)=O)C(=O)N[C@H](CCC(N)=O)C(=O)N[C@H](CC(N)=O)C(=O)N[C@H](CCC(=O)O)C(=O)N[C@H](CCC(N)=O)C(=O)O [DA2NEQ (D), dAdLdWdKdTdLdLdKdKdVdGdKdVdAdGdKdAdVdLdNdAdVdTdNdMdAdNdQdNdEdQ] (H-[dA][dL][dW][dK][dT][dL][dL][dK][dK][dV]G[dK][dV][dA]G[dK][dA][dV][dL][dN][dA][dV][dT][dN][dM][dA][dN][dQ][dN][dE][dQ]-OH; N-terminus and C-terminus assumed) | 12.5 (≈ 41.7 µg/mL) | 12.5 (≈ 41.7 µg/mL) | 0.8 (≈ 2.67 µg/mL) | 0.8 (≈ 2.67 µg/mL) | 3.1 (≈ 10.4 µg/mL) | 1.6 (≈ 5.34 µg/mL) | 1.6 (≈ 5.34 µg/mL) | 1.6 (≈ 5.34 µg/mL)
ALWDTLLKKVGKVAGKAVLNAVTNMANQN [K4D] | 50 | 50 | 12.5 | 12.5 | 25 | 25 | 12.5 | 12.5
ALWKTLAKKVGKVAGKAVLNAVTNMANQN [L7A] | 6.3 | 6.3 | 0.8 | 0.8 | 1.6 | 1.6 | 3.1 | 3.1
ALWKTLLKKVGKAAGKAVLNAVTNMANQN [V13A] | 50 | 50 | 1.6 | 1.6 | 6.3 | 6.3 | 12.5 | 6.3
ALWKTLLKKVGKVAGKAVLNAVTNAANQN [M25A] | 12.5 | 12.5 | 0.8 | 0.8 | 3.1 | 3.1 | 3.1 | 3.1
ALWKTLLKKVGKVDGKAVLNAVTNMANQN [A14D] | >50 | >50 | 6.3 | 6.3 | >50 | 50 | >50 | >50
ALWKTLLKKVGKVKGKAVLNAVTNMANQN [A14K] | >50 | >50 | 1.6 | 1.6 | 12.5 | 12.5 | 50 | 25
ALWKTLLKKVGPVAGKAVLNAVTNMANQN [K12P] | >50 | >50 | 6.3 | 6.3 | 12.5 | 12.5 | 6.3 | 6.3
Gramicidin [reference compound] | 0.8 | 0.8 | >100 | >100 | >100 | >100 | >50 | >50
